The term inhibition denotes the relative decrease from the control value, in per cent.

Structures are written as SMILES.

This is an account of results in US4579866A, “Phenylacetamides as anti-allergy, anti-asthma and anti-inflammatory agents” (USV Pharmaceutical Corp., priority 1984, dated 1986).

One assay deals with T1, HUMAN 5 LIPOXYGENASE (Homo sapiens, UniProt P09917).
T1 construct: A suspension of human neutrophils in buffer; endogenous in cells; host or cells: human neutrophils (PMNs) from venous blood of healthy volunteers
T1 sequence (P09917 1-674): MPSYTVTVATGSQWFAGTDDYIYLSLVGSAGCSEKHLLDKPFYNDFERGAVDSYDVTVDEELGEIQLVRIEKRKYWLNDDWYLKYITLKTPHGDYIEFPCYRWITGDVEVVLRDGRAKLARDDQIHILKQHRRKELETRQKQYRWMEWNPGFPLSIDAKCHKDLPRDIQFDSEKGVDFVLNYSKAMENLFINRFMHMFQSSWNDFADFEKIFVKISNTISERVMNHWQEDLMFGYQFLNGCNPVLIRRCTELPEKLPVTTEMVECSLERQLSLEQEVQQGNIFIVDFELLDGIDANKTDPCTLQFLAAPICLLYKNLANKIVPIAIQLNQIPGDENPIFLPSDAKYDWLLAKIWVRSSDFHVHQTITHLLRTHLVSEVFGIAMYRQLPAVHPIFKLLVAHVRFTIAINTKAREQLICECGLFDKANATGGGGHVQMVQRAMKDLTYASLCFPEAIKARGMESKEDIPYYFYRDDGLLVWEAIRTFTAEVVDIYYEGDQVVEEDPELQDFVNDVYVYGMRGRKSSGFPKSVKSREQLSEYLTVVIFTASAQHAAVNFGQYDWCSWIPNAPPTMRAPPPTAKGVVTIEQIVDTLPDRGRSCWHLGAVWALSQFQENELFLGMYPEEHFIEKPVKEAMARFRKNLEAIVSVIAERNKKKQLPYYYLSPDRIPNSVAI
Put plainly: Biosynthesis of 5-HETE by human polymorphonuclear leukocytes in vitro (inhibition of human 5-lipoxygenase). The assay is classed as cell-based. As to conditions: human neutrophils, A23187, 3 minutes at 30° C.; for IC50: concentration at which 50% inhibition is observed, read-out: INHIBITION OF HUMAN 5 LIPOXYGENASE, I50. As to the method: Protocol for the Biosynthesis of 5-HETE (5(S)-Hydroxyeicosatetraenoic Acid) by Human Polymorphonuclear Leukocytes In Vitro
(A) Isolation of Human Neutrophils
Freshly drawn venous blood from healthy human volunteers is mixed with 2 mM ethylenediamine tetraacetic acid, and is sedimented at 1×g over 6% dextran-saline. The leukocyte layer is aspirated, and the cells are concentrated by centrifugation and are layered over stacked Percoll® solutions, having densities of 1.072, 1.082 and 1.100, respectively. PMNs are isolated at the interface between the two densest layers after centrifugation at 400×g. Contaminating red blood cells are lysed by a short treatment of 0.16M ammonium chloride.
A suspension of human neutrophils in buffer is incubated for 3 minutes at 30° C. with (^14 C)-arachidonic acid (AA) and calcium ionophore A23187. Citric Acid (2M)/NDGA*(10 mM) is used to quench the reaction. Following the addition of a trace amount of (^3 H)-5-HETE together with an excess of unlabeled 5-HETE to each tube, the mixture is extracted with chloroform/methanol. The organic layer is washed with dilute hydrochloric acid and the total volume is transferred to glass tubes and dried in vacuo. The residue is dissolved in a small volume of chloroform and is spotted on silica gel TLC sheets, which are developed with an ethyl acetate/iso-octane/water/acetic acid solvent system (11/5/10/1 v/v). The 5-HETE spots are visualized under UV light, cut out and placed in scintillation vials for quantitation of radioactivity. After adjusting for the extraction efficiency, the amount (pmole) of (^14 C)-5-HETE in each of the tubes is calculated. The net pmoles of 5-HETE are obtained by subtracting the pmole of 5-HETE in the tubes containing buffer alone (blank) from the pmoles of 5-HETE in the tubes containing […]. The ability of the test compound to modulate the activity of this enzyme is determined by a decrease or increase in the net amount of 5-HETE produced. This assay is a modification of that described by Bach and Brashler for rat peritoneal cells: Bach, M., Brashler, J.: Ionophore A23187-Induced Production of SRS-A by Rat Peritoneal Cells In Vitro: Evidence for Production by Mononuclear Cells. J. Immunol. 120 998-1005 (1978).
*NDGA-nordihydroguaiaretic acid
(§1) If the percentage of inhibition exceeds 50%, the compounds are then evaluated in terms of response over a range of concentrations. From a plot of response against concentration, the I50 value is obtained. The I50 value is the concentration at which 50% inhibition is observed.

For another assay, the target named is T2, RAT 5-LIPOXYGENASE (Rattus norvegicus, UniProt P12527).
T2 construct: A suspension of rat neutrophils in buffer; endogenous in cells; host or cells: rat neutrophils (polymorphonuclear leukocytes)
T2 sequence (P12527 1-673): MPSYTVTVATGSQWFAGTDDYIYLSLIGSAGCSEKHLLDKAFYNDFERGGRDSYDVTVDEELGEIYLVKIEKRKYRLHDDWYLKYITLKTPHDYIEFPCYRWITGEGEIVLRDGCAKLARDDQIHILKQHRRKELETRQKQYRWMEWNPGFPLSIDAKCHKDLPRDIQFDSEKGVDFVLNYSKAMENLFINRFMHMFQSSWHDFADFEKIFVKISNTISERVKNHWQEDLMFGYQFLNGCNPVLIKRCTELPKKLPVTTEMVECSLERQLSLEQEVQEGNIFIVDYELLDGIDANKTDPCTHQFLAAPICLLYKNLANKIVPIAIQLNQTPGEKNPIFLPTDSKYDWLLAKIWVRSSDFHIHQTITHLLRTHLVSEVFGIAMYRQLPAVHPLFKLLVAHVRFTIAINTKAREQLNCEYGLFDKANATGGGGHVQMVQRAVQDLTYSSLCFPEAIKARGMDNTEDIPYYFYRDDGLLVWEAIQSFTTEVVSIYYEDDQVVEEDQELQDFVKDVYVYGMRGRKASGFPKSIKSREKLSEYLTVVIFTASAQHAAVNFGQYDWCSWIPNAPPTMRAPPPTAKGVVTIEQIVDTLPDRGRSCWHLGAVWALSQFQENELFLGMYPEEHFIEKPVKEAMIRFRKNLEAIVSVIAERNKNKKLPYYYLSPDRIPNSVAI
Put plainly: Biosynthesis of 5-HETE by rat polymorphonuclear leukocytes in vitro (inhibition of rat 5-lipoxygenase). The conditions noted are these: rat neutrophils, A23187, 3 minutes at 30° C.; concentration at which 50% inhibition is observed; read-out: INHIBITION OF RAT 5-LIPOXYGENASE, I50. It is filed as cell-based. As to the method: Protocol for the Biosynthesis of 5-HETE by Rat Polymorphonuclear Leukocytes In Vitro
A suspension of rat neutrophils in buffer is incubated for 3 minutes at 30° C. with [^14 C]-arachidonic acid (AA) and calcium ionophore A23187. Citric Acid (2M) NDGA (10 mM) is used to quench the reaction. Following the addition of a trace amount of (^3 H)-5-HETE together with an excess of unlabeled 5-HETE to each tube, the mixture is extracted with chloroform/methanol. The organic layer is washed with dilute acid and an aliquot is transferred to glass tubes and dried. The residue is dissolved in a small volume of chloroform and an aliquot is spotted on silica gel TLC sheets, which are developed with an ethyl acetate/isoctane/water/acetic acid solvent system. The 5-HETE spots are visualized under UV light, cut out and placed in scintillation vials for counting. After adjusting for the extraction efficiency, the amount (pmole) of [^14 C]-5-HETE in each of the tubes is quantitated. The net pmoles of 5-HETE are obtained by subtracting the pmoles of 5-HETE in the tubes containing buffer alone (blank) from the pmoles of 5-HETE in the tubes containing […]. The ability of the test compounds to modulate the activity of this enzyme is determined by a decrease or increase in the net amount of 5-HETE produced.
as §1

Turning to `COC(=O)[C@@H](Cc1ccccc1)NC(=O)Cc1ccc(OCc2ccccc2)c(Cl)c1` [4-Benzyloxy-3-Chlorophenylacetyl-D-Phenylalanine Methyl Ester], the IC50 is 0.6 µM at HUMAN 5 LIPOXYGENASE and 0.25 µM on RAT 5-LIPOXYGENASE.

In the case of `COC(=O)[C@@H](Cc1ccccc1)NC(=O)Cc1ccc(OCC2CC2)c(Cl)c1` [3-Chloro-4-cyclopropylmethyloxyphenylacetyl-D-phenylalanine methyl ester], the IC50 amounted to 50 µM at HUMAN 5 LIPOXYGENASE and 1 µM on RAT 5-LIPOXYGENASE.

With `CN(CCc1ccccc1)C(=O)Cc1ccc(OCCc2ccccc2)c(Cl)c1` [N--[3-Chloro-4-phenylethyloxyphenylacetyl]-N--methyl-2-phenylethylamine], the results for the IC50 at HUMAN 5 LIPOXYGENASE and at RAT 5-LIPOXYGENASE were 8 µM and 2.2 µM, respectively.

At HUMAN 5 LIPOXYGENASE, `COC(=O)[C@@H](Cc1ccccc1)NC(=O)Cc1ccc(OC(C)C)c(Cl)c1` [3-Chloro-4-isopropyloxyphenylacetyl-D-phenylalanine methyl ester] displayed an inhibition at 30 µM of 95%. The IC50 at RAT 5-LIPOXYGENASE is 2 µM.

Take `COC(=O)[C@@H](Cc1c[nH]c2ccccc12)NC(=O)Cc1ccc(OCc2ccccc2)c(Cl)c1` [4-Benzyloxy-3-chlorophenylacetyl-D-tryptophan methyl ester]: the IC50 on HUMAN 5 LIPOXYGENASE is 14 µM; at RAT 5-LIPOXYGENASE it was 5.4 µM.

Turning to `COC(=O)[C@@H](Cc1ccccc1)NC(=O)Cc1ccc(OCCc2ccccc2)c(Cl)c1` [3-Chloro-4-phenylethyloxyphenylacetyl-D-phenylalanine methyl ester], the IC50 was 7 µM on HUMAN 5 LIPOXYGENASE and 0.7 µM on RAT 5-LIPOXYGENASE.

As for `CN(CCc1ccccc1)C(=O)Cc1ccc(OCc2ccccc2)c(Cl)c1` [N--[4-Benzyloxy-3-chlorophenylacetyl]-N--methyl-2-phenylethylamine], the values for the IC50 at HUMAN 5 LIPOXYGENASE and on RAT 5-LIPOXYGENASE were 2 µM and 4.2 µM, respectively.

`COC(=O)[C@@H](Cc1ccccc1)N(C)C(=O)Cc1ccc(OCCc2ccccc2)c(Cl)c1` [3-Chloro-4-phenylethyloxyphenylacetyl-N--methyl-D-phenylalanine methyl ester] gave an inhibition at 30 µM on HUMAN 5 LIPOXYGENASE of 28%. The IC50 on RAT 5-LIPOXYGENASE stood at 5 µM.
